Measurements from patent publication US7829560B2, “1,4-disubstituted naphthalenes as inhibitors of P38 MAP kinase” (Arqule, Inc., priority 2004, dated 2010).

Legend:
[1] = system: TNFα release from THP-1 cells; assay: Inhibition of TNFα release from LPS-stimulated THP-1 cells, ELISA; assay type: cell-based; conditions: Homo sapiens, THP-1, THP-1 cells, read-out: [CELL] THP-1, IC50, TNF ALPHA, ELISA
In short: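 TNFα released into supernatant after 18 h of 10 μg/ml LPS stimulation was quantified by ELISA and IC50 taken as 50% reduction by non-linear regression. THP-1 cells (10^6/ml; medium with 10% FBS, serum-free or 1% HSA) saw compound for 30 min at 37 °C beforehand; final DMSO ≤0.5%.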

p38α = target: T1, p38α (Homo sapiens, UniProt Q16539); assay: p38 MAP Kinase assay: inhibition of ATF2 phosphorylation, ELISA; assay type: biochemical; conditions: ATF2 phosphorylation; read-out: [ENZ] P38 ALPHA, IC50, ELISA
T1 construct: p38 MAP Kinases are recombinant human full-length proteins with an amino-terminal GST fusion; GST (N); purchased Upstate Biotechnology Inc; host or cells: E. coli
In short: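 In vitro phosphorylation of ATF2 at Thr69 by recombinant human GST-p38 MAP kinase, read by anti-phospho-ATF2 ELISA at 450 nm. Enzyme and compound pre-incubated 15 min at RT, then 30 min reaction at 37 °C with 40 μM ATP and 1.25 μM ATF2; buffer with or without 1% HSA (Method II or I).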

T1 sequence (Q16539 whole entry, the tested form may be a part): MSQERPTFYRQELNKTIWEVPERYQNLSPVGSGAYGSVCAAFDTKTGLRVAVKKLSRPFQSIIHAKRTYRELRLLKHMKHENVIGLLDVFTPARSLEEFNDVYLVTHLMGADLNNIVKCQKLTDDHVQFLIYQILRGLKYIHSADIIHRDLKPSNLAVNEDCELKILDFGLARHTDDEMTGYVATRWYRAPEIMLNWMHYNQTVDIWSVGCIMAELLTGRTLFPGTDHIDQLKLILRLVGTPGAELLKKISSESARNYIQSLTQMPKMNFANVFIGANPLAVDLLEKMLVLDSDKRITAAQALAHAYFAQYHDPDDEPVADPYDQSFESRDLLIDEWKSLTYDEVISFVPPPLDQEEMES

Row | IC50 [1] | melting point | IC50 (p38α) | Compound
1 | 5.8 nM | 116 to 117 °C | 2.5 nM | O=C(Nc1ccc(Oc2ccnc(NCC3CC3)n2)c2ccccc12)c1cc(F)cc(N2CCOCC2)c1 [Compound B336, N-[4-({2-[(Cyclopropylmethyl)amino]pyrimidin-4-yl}oxy)-1-naphthyl]-3-fluoro-5-morpholin-4-ylbenzamide]
2 | 232 nM | 130 to 132 °C | 275 nM | CSc1nccc(Oc2ccc(NC(=O)c3cc(F)cc(OC4CCCCC4)c3)c3ccccc23)n1 [Compound B303, 3-(Cyclohexyloxy)-5-fluoro-N-(4-{[2-(methylthio)pyrimidin-4-yl]oxy}-1-naphthyl)benzamide]
3 | > 10000 nM | 77 to 78 °C | 8810 nM | O=C(Nc1ccc(OCCN2CCOCC2)c2ccccc12)c1cccc(-c2cccnc2)c1 [Compound B58, N-[4-(2-Morpholin-4-yl-ethoxy)-naphthalen-1-yl]-3-pyridin-3-yl-benzamide]
4 | > 1000 nM | 102 to 104 °C | 95.6 nM | CC(C)N(C)c1nccc(Oc2ccc(NC(=O)c3cc(F)cc(N4CCCCC4)c3)c3ccccc23)n1 [Compound B385, 3-Fluoro-N-[4-({2-[isopropyl(methyl)amino]pyrimidin-4-yl}oxy)-1-naphthyl]-5-piperidin-1-ylbenzamide]
5 | 2210 nM | 221 to 222 °C | 39.9 nM | Cc1ncsc1CCOc1ccc(NC(=O)c2cc(F)cc(N3CCCCC3)c2)c2ccccc12 [Compound B424, 3-Fluoro-N-{4-[2-(4-methyl-1,3-thiazol-5-yl)ethoxy]-1-naphthyl}-5-piperidin-1-ylbenzamide]
6 | 2650 nM | 142 to 143 °C | 1190 nM | O=C(Nc1ccc(OCCN2CCOCC2)c2ccccc12)c1cccc(-n2cccc2)c1 [Compound B57, N-[4-(2-Morpholin-4-yl-ethoxy)-naphthalen-1-yl]-3-pyrrol-1-yl-benzamide]
7 | 472 nM | 174 to 176 °C | 50.2 nM | C[C@@H]1CN(c2nccc(Oc3ccc(NC(=O)c4cc(F)cc(N5CCCCC5)c4)c4ccccc34)n2)C[C@H](C)O1 [Compound B416, N-[4-({2-[(2R,6S)-2,6-Dimethylmorpholin-4-yl]pyrimidin-4-yl}oxy)-1-naphthyl]-3-fluoro-5-piperidin-1-ylbenzamide]
8 | 689 nM | 140 to 142 °C | 17.8 nM | O=C1CN(c2nccc(Oc3ccc(NC(=O)c4cc(F)cc(N5CCCCC5)c4)c4ccccc34)n2)CCN1 [Compound B421, 3-Fluoro-N-(4-{[2-(3-oxopiperazin-1-yl)pyrimidin-4-yl]oxy}-1-naphthyl)-5-piperidin-1-ylbenzamide]
9 | 607 nM | 94 to 96 °C | 44.6 nM | CC(C)N(C)c1nccc(Oc2ccc(NC(=O)c3cc(F)cc(N4CCOCC4)c3)c3ccccc23)n1 [Compound B322, 3-Fluoro-N-[4-({2-[isopropyl(methyl)amino]pyrimidin-4-yl}oxy)-1-naphthyl]-5-morpholin-4-ylbenzamide]
10 | 76.1 nM | 118 to 120 °C | 3.1 nM | O=C(Nc1ccc(Oc2ccnc(NC3CC3)n2)c2ccccc12)c1cc(F)cc(N2CCOCC2)c1 [Compound B321, N-(4-{[2-(Cyclopropylamino)pyrimidin-4-yl]oxy}-1-naphthyl)-3-fluoro-5-morpholin-4-ylbenzamide]
11 | 2050 nM | 158 to 160 °C | 1060 nM | COc1ccc(CCOc2ccc(NC(=O)c3cc(F)cc(N4CCCCC4)c3)c3ccccc23)cc1OC [Compound B179, N-{4-[2-(3,4-Dimethoxyphenyl)ethoxy]-1-naphthyl}-3-fluoro-5-piperidin-1-ylbenzamide]
12 | 4280 nM | 203 to 206 °C | 7860 nM | CC1=NC(C)(COc2ccc(NC(=O)c3cc(F)cc(N4CCOCC4)c3)c3ccccc23)CO1 (stereo not drawn) [Compound B232, N-{4-[(2,4-Dimethyl-4,5-dihydro-1,3-oxazol-4-yl)methoxy]-1-naphthyl}-3-fluoro-5-morpholin-4-ylbenzamide]
13 | 239 nM | 115 to 116 °C | 225 nM | CSc1nccc(Oc2ccc(NC(=O)c3cc(F)cc(OC4CCCC4)c3)c3ccccc23)n1 [Compound B304, 3-(Cyclopentyloxy)-5-fluoro-N-(4-{[2-(methylthio)pyrimidin-4-yl]oxy}-1-naphthyl)benzamide]
14 | 193 nM | 186 to 187 °C | 27.7 nM | Cc1ncsc1CCOc1ccc(NC(=O)c2cc(F)cc(N3CCOCC3)c2)c2ccccc12 [Compound B231, 3-Fluoro-N-{4-[2-(4-methyl-1,3-thiazol-5-yl)ethoxy]-1-naphthyl}-5-morpholin-4-ylbenzamide]
15 | 65.6 nM | 116 to 117 °C | 33.3 nM | CC1CCC(Nc2nccc(Oc3ccc(NC(=O)c4cc(F)cc(N5CCOCC5)c4)c4ccccc34)n2)CC1 (stereo not drawn) [Compound B337, 3-Fluoro-N-[4-({2-[(4-methylcyclohexyl)amino]pyrimidin-4-yl}oxy)-1-naphthyl]-5-morpholin-4-ylbenzamide]
16 | 42.2 nM | 150 to 151 °C | 13.9 nM | O=C(Nc1ccc(Oc2ccnc(NC3CCS(=O)(=O)C3)n2)c2ccccc12)c1cc(F)cc(N2CCOCC2)c1 (stereo not drawn) [Compound B347, N-[4-({2-[(1,1-Dioxidotetrahydro-3-thienyl)amino]pyrimidin-4-yl}oxy)-1-naphthyl]-3-fluoro-5-morpholin-4-ylbenzamide]
17 | 237 nM | 110 to 112 °C | 3.7 nM | O=C(Nc1ccc(Oc2ccnc(NC3CCC3)n2)c2ccccc12)c1cc(F)cc(N2CCOCC2)c1 [Compound B331, N-(4-{[2-(Cyclobutylamino)pyrimidin-4-yl]oxy}-1-naphthyl)-3-fluoro-5-morpholin-4-ylbenzamide]
18 | 190 nM | 115 to 117 °C | 7.1 nM | O=C(Nc1ccc(Oc2ccnc(N3CCC4(CC3)OCCO4)n2)c2ccccc12)c1cc(F)cc(N2CCOCC2)c1 [Compound B320, N-(4-{[2-(1,4-Dioxa-8-azaspiro[4.5]dec-8-yl)pyrimidin-4-yl]oxy}-1-naphthyl)-3-fluoro-5-morpholin-4-ylbenzamide]
19 | 431 nM | 180 to 181 °C | 5.2 nM | O=C(Nc1ccc(Oc2ccnc(N3CCCC(O)C3)n2)c2ccccc12)c1cc(F)cc(N2CCOCC2)c1 (stereo not drawn) [Compound B346, 3-Fluoro-N-(4-{[2-(3-hydroxypiperidin-1-yl)pyrimidin-4-yl]oxy}-1-naphthyl)-5-morpholin-4-ylbenzamide]
20 | 580 nM | 81 to 82 °C | 28.9 nM | COCCN(C)c1nccc(Oc2ccc(NC(=O)c3cc(F)cc(N4CCCCC4)c3)c3ccccc23)n1 [Compound B414, 3-Fluoro-N-[4-({2-[(2-methoxyethyl)(methyl)amino]pyrimidin-4-yl}oxy)-1-naphthyl]-5-piperidin-1-ylbenzamide]
21 | 48.7 nM | 128 to 129 °C | 7.8 nM | CN1CCC(Nc2nccc(Oc3ccc(NC(=O)c4cc(F)cc(N5CCOCC5)c4)c4ccccc34)n2)CC1 [Compound B362, 3-Fluoro-N-[4-({2-[(1-methylpiperidin-4-yl)amino]pyrimidin-4-yl}oxy)-1-naphthyl]-5-morpholin-4-ylbenzamide]
22 | 60.9 nM | 95 to 97 °C | 17.1 nM | O=C(Nc1ccc(Oc2ccnc(NCCN3CCCC3)n2)c2ccccc12)c1cc(F)cc(N2CCOCC2)c1 [Compound B338, 3-Fluoro-5-morpholin-4-yl-N-[4-({2-[(2-pyrrolidin-1-ylethyl)amino]pyrimidin-4-yl}oxy)-1-naphthyl]benzamide]
23 | 590 nM | 145 to 146 °C | 87.8 nM | CC1CCN(c2nccc(Oc3ccc(NC(=O)c4cc(F)cc(N5CCCCC5)c4)c4ccccc34)n2)CC1 [Compound B381, 3-Fluoro-N-(4-{[2-(4-methylpiperidin-1-yl)pyrimidin-4-yl]oxy}-1-naphthyl)-5-piperidin-1-ylbenzamide]
24 | > 1000 nM | 102 to 104 °C | 166 nM | CC1CC(C)CN(c2nccc(Oc3ccc(NC(=O)c4cc(F)cc(N5CCOCC5)c4)c4ccccc34)n2)C1 (stereo not drawn) [Compound B348, N-(4-{[2-(3,5-Dimethylpiperidin-1-yl)pyrimidin-4-yl]oxy}-1-naphthyl)-3-fluoro-5-morpholin-4-ylbenzamide]
25 | > 1000 nM | 211 to 212 °C | 90.9 nM | CC(C)(C)OC(=O)NC1CCN(c2nccc(Oc3ccc(NC(=O)c4cc(F)cc(N5CCCCC5)c4)c4ccccc34)n2)CC1 [Compound B410, tert-Butyl{1-[4-({4-[(3-fluoro-5-piperidin-1-ylbenzoyl)amino]-1-naphthyl}oxy)pyrimidin-2-yl]piperidin-4-yl}carbamate]

Row | Compound | IC50 [1] | melting point | IC50 (p38α)
26 | CC(C)(C)Oc1cccc(C(=O)Nc2ccc(OCCN3CCOCC3)c3ccccc23)c1 [Compound B65, 3-tert-Butoxy-N-[4-(2-morpholin-4-yl-ethoxy)-naphthalen-1-yl]-benzamide] | 3420 nM | 50 to 51 °C | 614 nM
